From PubChem BioAssay AID248 (DTP/NCI, 2004)
Values joined by “and” are separate entries in the source; they are usually repeats but may differ in a detail not shown here. Equal values may be shown once. Toxic doses and inconclusive results are not listed. Cut-off read from the data, not from the text of the source: active = T/C of 150% or more; inactive = T/C below 125%.

Test system: L1210 leukemia ip in BDF1 mice, survival T/C
Experiment: NCI In Vivo Anticancer Drug Screen. Data for tumor model L1210 Leukemia (intraperitoneal) in B6D2F1 (BDF1) mice
Details: endpoint: mean survival time, higher = longer survival
Procedure, shortened: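 Tumor cells were implanted, animals were treated, and survival was followed. The result divides the treated measurement by the vehicle-control measurement.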

[1] = dose: 100.0 mg/kg/injection, schedule: Q01DX001 (ip), vehicle: saline
[2] = dose: 100.0 mg/kg/injection, schedule: Q01DX009 (ip), vehicle: saline
[3] = dose: 200.0 mg/kg/injection, schedule: Q01DX001 (ip), vehicle: saline
[4] = dose: 400.0 mg/kg/injection, schedule: Q01DX001 (ip), vehicle: saline
[5] = dose: 400.0 mg/kg/injection, schedule: Q01DX009 (ip), vehicle: saline
[6] = dose: 200.0 mg/kg/injection, schedule: Q04DX003 (ip), vehicle: Klucel (hydroxypropylcellulose) (HPC)
[7] = dose: 75.0 mg/kg/injection, schedule: Q01DX001 (ip), vehicle: carboxymethylcellulose (CMC)
[8] = dose: 150.0 mg/kg/injection, schedule: Q01DX001 (ip), vehicle: carboxymethylcellulose (CMC)
[9] = dose: 20.0 mg/kg/injection, schedule: Q01DX009 (ip), vehicle: saline

Measured: T/C

CCS(=O)(=O)c1ccc(C)cc1
inactive: [1] 95 % of control | [2] 89 % of control | dose: 100.0 mg/kg/injection, schedule: Q04DX003 (ip), vehicle: saline 109 % of control | [3] 93 % of control | dose: 200.0 mg/kg/injection, schedule: Q01DX009 (ip), vehicle: saline 95 % of control | dose: 200.0 mg/kg/injection, schedule: Q04DX003 (ip), vehicle: saline 95 % of control | [4] 96 % of control | [5] 87 % of control | dose: 400.0 mg/kg/injection, schedule: Q04DX003 (ip), vehicle: saline 98 % of control

OCC1OC(n2cc(I)c3cncnc32)C(O)C1O (stereo not given)
inactive: dose: 12.5 mg/kg/injection, schedule: Q01DX005 (ip), vehicle: saline 102 % of control | dose: 25.0 mg/kg/injection, schedule: Q01DX005 (ip), vehicle: saline 106 % of control | dose: 50.0 mg/kg/injection, schedule: Q01DX005 (ip), vehicle: saline 106 % of control

O=C(O)C1CC=CCC1C(=O)Nc1cccc(O)c1 (stereo not given)
inactive: dose: 100.0 mg/kg/injection, schedule: Q04DX002 (ip), vehicle: Klucel (hydroxypropylcellulose) (HPC) 99 % of control | dose: 200.0 mg/kg/injection, schedule: Q04DX002 (ip), vehicle: Klucel (hydroxypropylcellulose) (HPC) 105 % of control | dose: 400.0 mg/kg/injection, schedule: Q04DX002 (ip), vehicle: Klucel (hydroxypropylcellulose) (HPC) 99 % of control

Brc1ccccc1C[n+]1cccc2ccccc21
inactive: dose: 75.0 mg/kg/injection, schedule: Q01DX001 (ip), vehicle: other 101 % of control

Cc1ccc(/C=C\C(=O)c2ccccc2)cc1
inactive: dose: 100.0 mg/kg/injection, schedule: Q04DX003 (ip), vehicle: Klucel (hydroxypropylcellulose) (HPC) 100 % of control | [6] 96 % of control | dose: 400.0 mg/kg/injection, schedule: Q04DX003 (ip), vehicle: Klucel (hydroxypropylcellulose) (HPC) 102 % of control

CCOCC(=O)Oc1ccc(/C=N/NC(N)=S)nc1
inactive: dose: 100.0 mg/kg/injection, schedule: Q04DX002 (ip), vehicle: saline with Tween-80 116 % of control | dose: 200.0 mg/kg/injection, schedule: Q04DX002 (ip), vehicle: saline with Tween-80 113 % of control | dose: 400.0 mg/kg/injection, schedule: Q04DX002 (ip), vehicle: saline with Tween-80 116 % of control

CC(=O)OC1COC(n2cnc3c(=S)nc(N)[nH]c32)C(OC(C)=O)C1OC(C)=O (stereo not given)
inactive: [1] 100 % of control | [3] 97 % of control | [4] 97 % of control

CC1(C)S[C@@H]2[C@H](NC=O)C(=O)N2[C@H]1C(=O)OCc1ccccc1
inactive: [7] 90 % of control | [8] 86 % of control

c1ccc([S][Pb]([c]2ccccc2)([c]2ccccc2)[c]2ccccc2)cc1
inactive: dose: 8.0 mg/kg/injection, schedule: Q04DX003 (ip), vehicle: saline 111 % of control | dose: 16.0 mg/kg/injection, schedule: Q04DX003 (ip), vehicle: saline 103 % of control | dose: 32.0 mg/kg/injection, schedule: Q04DX003 (ip), vehicle: saline 122 % of control

O=C(O)/C=C/C(=O)OCCO
inactive: [7] 91 % of control | [8] 86 % of control

FC(F)(F)C1=N/C(=C2\N=C(C(F)(F)F)N=C2Cl)C(Cl)=N1
inactive: dose: 25.0 mg/kg/injection, schedule: Q01DX009 (ip), vehicle: saline with Tween-80 94 % of control | dose: 50.0 mg/kg/injection, schedule: Q01DX009 (ip), vehicle: saline with Tween-80 96 % of control

O=C(c1ccc2ccccc2c1)c1cccc(F)c1C(=O)O (tested in a mixture with another compound)
inactive: [7] 95 % of control | [8] 90 % of control

CC(C)=CCCBr
inactive: dose: 50.0 mg/kg/injection, schedule: Q01DX009 (sc), vehicle: olive oil, sesame oil, peanut oil 108 % of control | dose: 100.0 mg/kg/injection, schedule: Q01DX009 (sc), vehicle: olive oil, sesame oil, peanut oil 102 % of control | dose: 200.0 mg/kg/injection, schedule: Q01DX009 (sc), vehicle: olive oil, sesame oil, peanut oil 108 % of control

CC1(C)N=C(N)N=C(N)N1c1ccc(C(=O)Nc2ccc(S(=O)(=O)F)cc2)cc1
inactive: dose: 0.8 mg/kg/injection, schedule: Q01DX009 (ip), vehicle: saline 101 % of control | dose: 4.0 mg/kg/injection, schedule: Q01DX009 (ip), vehicle: saline 100 % of control | [9] 95 % of control | [2] 97 % of control | dose: 500.0 mg/kg/injection, schedule: Q01DX009 (ip), vehicle: saline 101 % of control

CC/C=N\N=C(N)N
inactive: dose: 15.0 mg/kg/injection, schedule: Q01DX Z (ip), vehicle: saline 101 % of control | dose: 30.0 mg/kg/injection, schedule: Q01DX Z (ip), vehicle: saline 106 % of control | dose: 60.0 mg/kg/injection, schedule: Q01DX Z (ip), vehicle: saline 100 % of control | dose: 120.0 mg/kg/injection, schedule: Q01DX010 (oral), vehicle: saline 94 % of control | dose: 120.0 mg/kg/injection, schedule: Q01DX Z (ip), vehicle: saline 100 % of control | dose: 240.0 mg/kg/injection, schedule: Q01DX010 (oral), vehicle: saline 98 % of control | dose: 240.0 mg/kg/injection, schedule: Q01DX Z (ip), vehicle: saline 95 % of control

CCSc1nc(Cl)cc(Sc2nc(N)nc3nc[nH]c23)n1
active: [2] 156 % of control | dose: 120.0 mg/kg/injection, schedule: Q04DX003 (ip), vehicle: saline 151 % of control | dose: 132.0 mg/kg/injection, schedule: Q04DX003 (ip), vehicle: saline with Tween-80 175 % of control | [6] 158 % of control | dose: 200.0 mg/kg/injection, schedule: Q04DX003 (ip), vehicle: saline with Tween-80 200 % of control | dose: 240.0 mg/kg/injection, schedule: Q01DX001 (ip), vehicle: saline 193 % of control | dose: 240.0 mg/kg/injection, schedule: Q04DX003 (ip), vehicle: saline 204 % of control | dose: 300.0 mg/kg/injection, schedule: Q04DX003 (ip), vehicle: Klucel (hydroxypropylcellulose) (HPC) 168 % of control | dose: 300.0 mg/kg/injection, schedule: Q04DX003 (ip), vehicle: saline with Tween-80 180 % of control | dose: 360.0 mg/kg/injection, schedule: Q01DX001 (ip), vehicle: saline 205 % of control | dose: 360.0 mg/kg/injection, schedule: Q04DX003 (ip), vehicle: saline 188 % of control
inactive: dose: 10.0 mg/kg/injection, schedule: Q01DX009 (ip), vehicle: saline 104 % of control | dose: 12.0 mg/kg/injection, schedule: Q01DX001 (ip), vehicle: saline 100 % of control | dose: 15.0 mg/kg/injection, schedule: Q04DX003 (ip), vehicle: saline 116 % of control | dose: 19.0 mg/kg/injection, schedule: Q01DX001 (ip), vehicle: saline 119 % of control | [9] 115 % of control | dose: 30.0 mg/kg/injection, schedule: Q04DX003 (ip), vehicle: saline 122 % of control | dose: 45.0 mg/kg/injection, schedule: Q01DX001 (ip), vehicle: saline 123 % of control | dose: 50.0 mg/kg/injection, schedule: Q04DX003 (ip), vehicle: saline 118 % of control | dose: 66.0 mg/kg/injection, schedule: Q01DX001 (ip), vehicle: saline 114 % of control and 123 % of control | dose: 100.0 mg/kg/injection, schedule: Q01DX Z (ip), vehicle: methylcellulose (MC) 115 % of control | [3] 100 % of control | dose: 200.0 mg/kg/injection, schedule: Q01DX Z (ip), vehicle: methylcellulose (MC) 122 % of control | [5] 108 % of control | dose: 400.0 mg/kg/injection, schedule: Q01DX Z (ip), vehicle: carboxymethylcellulose (CMC) 102 % of control | dose: 600.0 mg/kg/injection, schedule: Q01DX009 (ip), vehicle: saline 121 % of control | dose: 800.0 mg/kg/injection, schedule: Q01DX Z (ip), vehicle: carboxymethylcellulose (CMC) 90 % of control | dose: 810.0 mg/kg/injection, schedule: Q01DX001 (ip), vehicle: saline 124 % of control | dose: 810.0 mg/kg/injection, schedule: Q04DX003 (ip), vehicle: saline 119 % of control
